From patent publication US9133122B2, “Amide compounds, compositions and uses thereof” (EVOTEC AG, priority 2008, dated 2015)

Assays:
hP2X2/3H = target: T1, hP2X2/3H (Homo sapiens, UniProt P56373+Q9UBL9); experiment: Calcium uptake assay (Ca influx), P2X antagonist assay, P2X2/3 heteromer; type: cell-based; conditions: inhibition of agonist-induced calcium influx
T1 construct: expressed in transfected cells
T1 sequence (P56373 1-397): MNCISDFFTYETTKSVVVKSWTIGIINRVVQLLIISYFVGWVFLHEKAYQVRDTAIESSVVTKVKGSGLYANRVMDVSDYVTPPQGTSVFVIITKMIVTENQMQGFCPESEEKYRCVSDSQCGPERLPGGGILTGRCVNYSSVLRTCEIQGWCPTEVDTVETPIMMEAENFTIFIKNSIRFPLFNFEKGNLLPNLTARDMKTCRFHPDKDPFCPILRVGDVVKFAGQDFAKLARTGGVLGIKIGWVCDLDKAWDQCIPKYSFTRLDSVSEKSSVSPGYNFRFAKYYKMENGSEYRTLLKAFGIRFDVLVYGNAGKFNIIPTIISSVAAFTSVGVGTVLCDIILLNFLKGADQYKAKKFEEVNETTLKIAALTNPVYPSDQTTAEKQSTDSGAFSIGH
T1 sequence (Q9UBL9 1-471): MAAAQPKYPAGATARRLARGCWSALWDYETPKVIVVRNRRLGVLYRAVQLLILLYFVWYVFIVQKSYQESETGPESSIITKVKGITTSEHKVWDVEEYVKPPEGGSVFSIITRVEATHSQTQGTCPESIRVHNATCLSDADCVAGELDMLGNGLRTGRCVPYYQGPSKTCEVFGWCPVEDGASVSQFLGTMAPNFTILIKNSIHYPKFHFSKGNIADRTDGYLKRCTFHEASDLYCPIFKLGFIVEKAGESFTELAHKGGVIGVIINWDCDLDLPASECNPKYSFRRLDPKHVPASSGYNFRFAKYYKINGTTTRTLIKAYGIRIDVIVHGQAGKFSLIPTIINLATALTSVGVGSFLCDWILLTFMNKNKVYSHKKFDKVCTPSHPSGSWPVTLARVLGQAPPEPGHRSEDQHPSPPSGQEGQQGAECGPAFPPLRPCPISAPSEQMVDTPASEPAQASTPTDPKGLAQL
Description: (§1) Human P2X3 (Accession no. NM_002559), P2X2 (Accession no. NM_170682) and Rat P2X3 (Accession no. NM_031075) and P2X2 (Accession no. NM_053656) are cloned into a mammalian expression vector (e.g., pcDNAS/TO or pcDNA3 Invitrogen). The human P2X2/3 chimera clone is created as described by Neelands et al, and then cloned into an expression vector as above. Receptors are expressed in cells (e.g., HEK293 or 1321N1 (obtained from the ECACC)) via transient transfection using standard lipid mediated transfection, or by creation of stable transfectants for each receptor. For expression of the P2X2/3 heteromeric receptor, the P2X3 expression vector is stably transfected into a cell line already stably expressing P2X2. P2X2/3 heteromer function is isolated using pharmacological methods. Cell lines are maintained in DMEM+5% Glutamax, the appropriate level of selective antibiotic, and 10% heat inactivated FBS.
(§2) Functional activity of compounds at the P2X receptor is determined by measuring their ability to inhibit agonist-induced calcium influx. Compounds are tested for antagonist activity against the P2X2/3 chimera, the P2X3 homomer, or the P2X2/3 heteromer. At the start of each screening day, the agonist EC50 is determined. Compound % inhibition or IC50s are subsequently determined using a predetermined agonist concentration (EC50-90 depending on cell line) as a stimulus. The agonists used are αβMeATP, ATP, or other ATP analogs. Compounds may be tested at concentrations ranging from 1 pM to 10 μM.
(§3) To test for antagonist activity, cells expressing the appropriate receptor are seeded onto 96 or 384 well plates 18-24 hours prior to assay. On the day of the assay, cells are loaded with calcium-sensitive fluorescent dye (e.g., Fluo-4 no wash reagent-Invitrogen cat#F36206, or the BD™ PBX Calcium Assay Kit-BD cat #640175) in Hank's Buffered Salt Solution (HBSS) with up to 10 mM supplemental CaCl2. Plates are incubated at 37° C. and then equilibrated at room temperature. Antagonism of agonist-induced calcium influx is measured using a fluorescent imaging plate reader (e.g. FLIPR^TETRA, Molecular Devices, Sunnyvale, Calif.). The assay comprises two stages: a pre-treatment phase followed by a treatment phase. Compounds may be tested as follows: For the pre-treatment phase, 50 μL of 3× concentration of test compound in HBSS is added to cells containing 100 μL of dye loading media to achieve a final concentration of 1× test compound. For the treatment phase, at a set interval after pre-treatment (1-30 minutes), 50 μL of 1× test compound plus 4× agonist solution is added, resulting in a final concentration of 1× compound and 1× agonist. Fluorescence is measured at 0.1-3 second intervals—with an excitation wavelength of 494 nm and an emission wavelength of 515 nm. Responses are measured as (peak fluorescence after agonist addition) minus (baseline fluorescence prior to treatment). Percent inhibition is calculated as follows:
(§4) [formula] IC50 values are determined by analyzing dose response data in a 4 parameter logistic fit using GraphPad Prizm.
(§5) The following compounds have been or can be prepared according to the synthetic methods described herein. A calcium uptake assay was performed as described above and the activity of each compound is expressed as follows: […]

hP2X3 = target: T2, hP2X3 (Homo sapiens, UniProt P56373); experiment: Calcium uptake assay (Ca influx), P2X antagonist assay, P2X3 homomer; type: cell-based; conditions: inhibition of agonist-induced calcium influx
T2 construct: expressed in transfected cells
T2 sequence (P56373 1-397): T1 sequence (P56373 1-397)
Description: as §1, §2, §3, §4, §5

IC50 (hP2X2/3H) [µM] | IC50 (hP2X3) [µM] | SMILES
0.127 | 0.0241 | Cc1ncc([C@@H](C)NC(=O)c2cc(-c3ccccn3)cc(-c3ccccc3C#N)c2)cn1 [Compound 43, 2′-Cyano-5-pyridin-2-yl-biphenyl-3-carboxylic acid [(R)-1-(2-methyl-pyrimidin-5-yl)-ethyl]-amide]
0.293 | 0.0916 | Cc1ncc([C@@H](C)NC(=O)c2cc(-c3ccccn3)cc(-c3ccccc3CO)c2)cn1 [Compound 44, 2′-Hydroxymethyl-5-pyridin-2-yl-biphenyl-3-carboxylic acid [(R)-1-(2-methyl-pyrimidin-5-yl)-ethyl]-amide]
0.0134 | 0.0146 | COCc1ccccc1-c1cc(C(=O)N[C@H](C)c2cnc(C)nc2)cc(-c2ccc(C)cn2)c1 [Compound 45, 2′-Methoxymethyl-5-(5-methyl-pyridin-2-yl)-biphenyl-3-carboxylic acid [(R)-1-(2-methyl-pyrimidin-5-yl)-ethyl]-amide]
0.0088 | 0.0073 | Cc1ccc(-c2cc(C(=O)NCc3ccc(C)nc3)cc(-c3cnccc3C#N)c2)nc1 [Compound 46, 3-(4-Cyano-pyridin-3-yl)-5-(5-methyl-pyridin-2-yl)-N-(6-methyl-pyridin-3-ylmethyl)-benzamide]
0.0368 | 0.0291 | Cc1ccc(-c2cc(C(=O)N[C@H](C)c3cnc(C)nc3)cc(-c3ccccc3C(N)=O)c2)nc1 [Compound 47, 5′-(5-Methyl-pyridin-2-yl)-biphenyl-2,3′-dicarboxylic acid 2-amide 3′-{[(R)-1-(2-methyl-pyrimidin-5-yl)-ethyl]-amide}]
0.0332 | 0.0165 | Cc1ccc(-c2cc(C(=O)N[C@H](C)c3cnc(C)nc3)cc(N3CCCC3=O)c2)cc1 [Compound 48, 4′-Methyl-5-(2-oxo-pyrrolidin-1-yl)-biphenyl-3-carboxylic acid [(R)-1-(2-methyl-pyrimidin-5-yl)-ethyl]-amide]
0.205 | 0.0341 | Cc1ccc(-c2cc(C(=O)NCc3ccc(C)nc3)cc(N3CCCC3=O)c2)cc1 [Compound 49, 4′-Methyl-5-(2-oxo-pyrrolidin-1-yl)-biphenyl-3-carboxylic acid (6-methyl-pyridin-3-ylmethyl)-amide]
0.428 | 0.0259 | Cc1ccc(-c2cc(C(=O)NCc3cnc(C)nc3)cc(N3CCCC3=O)c2)cc1 [Compound 50, 4′-Methyl-5-(2-oxo-pyrrolidin-1-yl)-biphenyl-3-carboxylic acid (2-methyl-pyrimidin-5-ylmethyl)-amide]
0.037 | 0.0238 | Cc1ccc(-c2cc(C(=O)N[C@H](C)c3ccc(C)nc3)cc(N3CCCC3=O)c2)cc1 [Compound 51, 4′-Methyl-5-(2-oxo-pyrrolidin-1-yl)-biphenyl-3-carboxylic acid [(R)-1-(6-methyl-pyridin-3-yl)-ethyl]-amide]
0.0375 | 0.0262 | Cc1ccc(-c2cc(C(=O)N[C@H](C)c3cnc(C)nc3)cc(-c3cccc(F)c3C#N)c2)nc1 [Compound 52, 2′-Cyano-3′-fluoro-5-(5-methyl-pyridin-2-yl)-biphenyl-3-carboxylic acid [(R)-1-(2-methyl-pyrimidin-5-yl)-ethyl]-amide]
0.295 | 0.0626 | COCc1ccccc1-c1cc(C(=O)N[C@H](C)c2cnc(C)nc2)cc(-c2ccccn2)c1 [Compound 53, 2′-Methoxymethyl-5-pyridin-2-yl-biphenyl-3-carboxylic acid [(R)-1-(2-methyl-pyrimidin-5-yl)-ethyl]-amide]
0.509 | 0.0552 | Cc1ccc(-c2cc(C(=O)N[C@H](C)c3cnc(C)nc3)cc(-c3ccccc3C(=O)N(C)C)c2)nc1 [Compound 54, 5′-(5-Methyl-pyridin-2-yl)-biphenyl-2,3′-dicarboxylic acid 2-dimethylamide 3′-{[(R)-1-(2-methyl-pyrimidin-5-yl)-ethyl]-amide}]
0.0275 | 0.0127 | Cc1ccc(-c2cc(C(=O)N[C@H](C)c3cnc(C)nc3)cc(-c3cnccc3C#N)c2)nc1 [Compound 55, 3-(4-Cyano-pyridin-3-yl)-5-(5-methyl-pyridin-2-yl)-N-[(R)-1-(2-methyl-pyrimidin-5-yl)-ethyl]-benzamide]
0.418 | 0.0959 | Cc1ccc(-c2cc(C(=O)N[C@H](C)c3cnc(C)nc3)cc(N3CCCCC3=O)c2)nc1 [Compound 56, 3-(5-Methyl-pyridin-2-yl)-N-[(R)-1-(2-methyl-pyrimidin-5-yl)-ethyl]-5-(2-oxo-piperidin-1-yl)-benzamide]
0.527 | 0.0892 | Cc1ccc(-c2cc(C(=O)N[C@H](C)c3cnc(C)nc3)cc(N3CCOCC3=O)c2)nc1 [Compound 57, 3-(5-Methyl-pyridin-2-yl)-N-[(R)-1-(2-methyl-pyrimidin-5-yl)-ethyl]-5-(3-oxo-morpholin-4-yl)-benzamide]
0.194 | 0.0353 | Cc1ccc(-c2cc(C(=O)N[C@H](C)c3cnc(C)nc3)cc(N3CCCC3=O)c2)nc1 [Compound 58, (R)-3-(5-Methylpyridin-2-yl)-N-(1-(2-methylpyrimidin-5-yl)ethyl)-5-(2-oxopyrrolidin-1-yl)benzamide]
0.127 | 0.0658 | Cc1ccc(-c2cc(C(=O)NCc3ccc(C)nc3)cc(N3CCC[C@H]3CO)c2)cc1 [Compound 59, (S)-5-(2-(Hydroxymethyl)pyrrolidin-1-yl)-4′-methyl-N-((6-methylpyridin-3-yl)methyl)biphenyl-3-carboxamide]
8.68 | 0.207 | Cc1ccc(-c2cc(C(=O)N[C@@H](C)CO)cc(N3CCCC3=O)c2)cc1 [Compound 60, 4′-Methyl-5-(2-oxo-pyrrolidin-1-yl)-biphenyl-3-carboxylic acid ((S)-2-hydroxy-1-methyl-ethyl)-amide]
2.35 | 0.268 | Cc1ccc(-c2cc(C(=O)NCc3ccc(C)nc3)cc(N3CCNCC3=O)c2)cc1 [Compound 61, 4′-Methyl-5-(2-oxo-piperazin-1-yl)-biphenyl-3-carboxylic acid (6-methyl-pyridin-3-ylmethyl)-amide]
0.0474 | 0.0457 | Cc1ccc(-c2cc(C(=O)NCc3ccc(C)nc3)cc(N3CCC[C@@H]3CO)c2)cc1 [Compound 62, 5-((R)-2-Hydroxymethyl-pyrrolidin-1-yl)-4′-methyl-biphenyl-3-carboxylic acid (6-methyl-pyridin-3-ylmethyl)-amide]
0.0257 | 0.0118 | Cc1ccc(-c2cc(C(=O)NCc3ccc(C)nc3)cc(N3CCC[C@@H]3CO)c2)nc1 [Compound 63, 3-((R)-2-Hydroxymethyl-pyrrolidin-1-yl)-5-(5-methyl-pyridin-2-yl)-N-(6-methyl-pyridin-3-ylmethyl)-benzamide]
